According to ChEMBL document CHEMBL1132191, “Prediction of the binding free energies of new TIBO-like HIV-1 reverse transcriptase inhibitors using a combination of PROFEC, PB/SA, CMC/MD, and free energy calculations” (J Med Chem, 1999):

molecular target: Human immunodeficiency virus type 1 reverse transcriptase (Human immunodeficiency virus 1, UniProt Q72547); experiment: Effective concentration against HIV-1 reverse transcriptase; type: functional

| Structure (SMILES) | EC50 |
| --- | --- |
| C=CCN1[C@H](C)c2cccc3[nH]c(=S)n(c23)C[C@@H]1C | 790 nM |
| C=CCN1[C@@H](C)Cn2c(=S)[nH]c3cccc(c32)[C@@H]1C | 39 nM |
| C=CCN1Cc2c(Cl)ccc3[nH]c(=S)n(c23)C[C@@H]1C | 4.6 nM |
| CC(C)=CCN1Cc2cc(Cl)cc3[nH]c(=S)n(c23)C[C@@H]1C | 33 nM |
| C=CCN1Cc2c(C)ccc3[nH]c(=S)n(c23)C[C@@H]1C | 14 nM |
| C=CCN1Cc2cccc3[nH]c(=O)n(c23)C[C@@H]1C | 4200 nM |
| CC(C)=CCN1Cc2cccc3[nH]c(=S)n(c23)C[C@@H]1C | 44 nM |
| CC(C)=CCN1Cc2c(Cl)ccc3[nH]c(=S)n(c23)C[C@@H]1C [TIVIRAPINE] | 5.1 nM |
